Data published in PubChem BioAssay (NCI).
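Growth conditions: 96-well plates. Treatment: test compound, 48 hours, 5 concentrations. Analysis: linear interpolation between bracketing concentrations; unreached endpoints set to highest concentration. TGI denotes the concentration required for complete inhibition of growth.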

Legend:
Test in all cases: NCI tumour cell line growth inhibition, 48 h
786-0 renal = tested on: 786-0 renal
A498 renal = tested on: A498 renal
A549 NSCLC = tested on: A549 NSCLC
ACHN renal = tested on: ACHN renal
BT-549 breast = tested on: BT-549 breast
CAKI-1 renal = tested on: CAKI-1 renal
CCRF-CEM leukemia = tested on: CCRF-CEM leukemia
COLO 205 colon = tested on: COLO 205 colon
DU-145 prostate = tested on: DU-145 prostate
EKVX NSCLC = tested on: EKVX NSCLC
HCC-2998 colon = tested on: HCC-2998 colon
HCT-116 colon = tested on: HCT-116 colon
HCT-15 colon = tested on: HCT-15 colon
HL-60(TB) leukemia = tested on: HL-60(TB) leukemia
HOP-92 NSCLC = tested on: HOP-92 NSCLC
HS 578T breast = tested on: HS 578T breast
HT29 colon = tested on: HT29 colon
IGROV1 ovarian = tested on: IGROV1 ovarian
K-562 leukemia = tested on: K-562 leukemia
KM12 colon = tested on: KM12 colon
LOX IMVI melanoma = tested on: LOX IMVI melanoma
M14 melanoma = tested on: M14 melanoma
MALME-3M melanoma = tested on: MALME-3M melanoma
MDA-MB-231 breast = tested on: MDA-MB-231 breast
MDA-MB-435 = tested on: MDA-MB-435
MDA-N = tested on: MDA-N
MOLT-4 leukemia = tested on: MOLT-4 leukemia
NCI-H226 lung = tested on: NCI-H226 lung
NCI-H23 lung = tested on: NCI-H23 lung
NCI-H460 lung = tested on: NCI-H460 lung
NCI/ADR-RES ovarian = tested on: NCI/ADR-RES ovarian
OVCAR-3 ovarian = tested on: OVCAR-3 ovarian
OVCAR-4 ovarian = tested on: OVCAR-4 ovarian
OVCAR-5 ovarian = tested on: OVCAR-5 ovarian
OVCAR-8 ovarian = tested on: OVCAR-8 ovarian
PC-3 prostate = tested on: PC-3 prostate
RPMI-8226 leukemia = tested on: RPMI-8226 leukemia
RXF 393 renal = tested on: RXF 393 renal
SF-268 CNS = tested on: SF-268 CNS
SF-539 CNS = tested on: SF-539 CNS
SK-MEL-2 melanoma = tested on: SK-MEL-2 melanoma
SK-MEL-28 melanoma = tested on: SK-MEL-28 melanoma
SK-MEL-5 melanoma = tested on: SK-MEL-5 melanoma
SK-OV-3 ovarian = tested on: SK-OV-3 ovarian
SN12C renal = tested on: SN12C renal
SNB-19 CNS = tested on: SNB-19 CNS
SNB-75 CNS = tested on: SNB-75 CNS
SR leukemia = tested on: SR leukemia
SW-620 colon = tested on: SW-620 colon
T-47D breast = tested on: T-47D breast
U251 CNS = tested on: U251 CNS
UACC-257 melanoma = tested on: UACC-257 melanoma
UACC-62 melanoma = tested on: UACC-62 melanoma
HOP-62 NSCLC = tested on: HOP-62 NSCLC
MCF7 breast = tested on: MCF7 breast
NCI-H522 lung = tested on: NCI-H522 lung
SF-295 CNS = tested on: SF-295 CNS
TK-10 renal = tested on: TK-10 renal
UO-31 renal = tested on: UO-31 renal

With `COc1cccc2cc(C(N)=O)c(=N)oc12` the TGI (786-0 renal) was > 100 µM, the TGI (A498 renal) was > 100 µM and the TGI (A549 NSCLC) was > 100 µM. For the same molecule, the TGI (ACHN renal) was > 100 µM, the TGI (BT-549 breast) was > 100 µM and the TGI (CAKI-1 renal) was > 100 µM. The TGI (CCRF-CEM leukemia) was > 100 µM, the TGI (COLO 205 colon) was > 100 µM and the TGI (DU-145 prostate) was > 100 µM. The TGI (EKVX NSCLC) was > 100 µM, the TGI (HCC-2998 colon) was > 100 µM and the TGI (HCT-116 colon) was > 100 µM. The TGI (HCT-15 colon) was > 100 µM, the TGI (HL-60(TB) leukemia) was > 100 µM and the TGI (HOP-92 NSCLC) was > 100 µM. For the same molecule, the TGI (HS 578T breast) was 97.5 µM, the TGI (HT29 colon) was > 100 µM and the TGI (IGROV1 ovarian) was > 100 µM. The TGI (K-562 leukemia) was > 100 µM, the TGI (KM12 colon) was > 100 µM and the TGI (LOX IMVI melanoma) was > 100 µM. The TGI (M14 melanoma) was > 100 µM, the TGI (MALME-3M melanoma) was 45.9 µM and the TGI (MDA-MB-231 breast) was > 100 µM. For the same molecule, the TGI (MDA-MB-435) was > 100 µM, the TGI (MDA-N) was > 100 µM and the TGI (MOLT-4 leukemia) was > 100 µM. For the same molecule, the TGI (NCI-H226 lung) was > 100 µM, the TGI (NCI-H23 lung) was > 100 µM and the TGI (NCI-H460 lung) was > 100 µM. The TGI (NCI/ADR-RES ovarian) was > 100 µM, the TGI (OVCAR-3 ovarian) was > 100 µM and the TGI (OVCAR-4 ovarian) was > 100 µM. For the same molecule, the TGI (OVCAR-5 ovarian) was > 100 µM, the TGI (OVCAR-8 ovarian) was > 100 µM and the TGI (PC-3 prostate) was > 100 µM. The TGI (RPMI-8226 leukemia) was > 100 µM, the TGI (RXF 393 renal) was > 100 µM and the TGI (SF-268 CNS) was > 100 µM. For the same molecule, the TGI (SF-539 CNS) was > 100 µM, the TGI (SK-MEL-2 melanoma) was 60.7 µM and the TGI (SK-MEL-28 melanoma) was > 100 µM. For the same molecule, the TGI (SK-MEL-5 melanoma) was > 100 µM, the TGI (SK-OV-3 ovarian) was > 100 µM and the TGI (SN12C renal) was > 100 µM. The TGI (SNB-19 CNS) was > 100 µM, the TGI (SNB-75 CNS) was > 100 µM and the TGI (SR leukemia) was > 100 µM. For the same molecule, the TGI (SW-620 colon) was > 100 µM, the TGI (T-47D breast) was > 100 µM and the TGI (U251 CNS) was > 100 µM. For the same molecule, the TGI (UACC-257 melanoma) was > 100 µM and the TGI (UACC-62 melanoma) was > 100 µM.
With `O=C1NC2(CCCCC2)N=C2C(Cl)CCCC12Cl` (stereo not drawn) the TGI (786-0 renal) was > 100 µM, the TGI (A498 renal) was > 100 µM and the TGI (A549 NSCLC) was > 100 µM. The TGI (ACHN renal) was > 100 µM, the TGI (BT-549 breast) was > 100 µM and the TGI (CCRF-CEM leukemia) was > 100 µM. The TGI (COLO 205 colon) was > 100 µM, the TGI (DU-145 prostate) was > 100 µM and the TGI (EKVX NSCLC) was > 100 µM. The TGI (HCC-2998 colon) was > 100 µM, the TGI (HCT-15 colon) was > 100 µM and the TGI (HL-60(TB) leukemia) was > 100 µM. The TGI (HOP-62 NSCLC) was > 100 µM, the TGI (HS 578T breast) was > 100 µM and the TGI (HT29 colon) was > 100 µM. The TGI (IGROV1 ovarian) was > 100 µM, the TGI (K-562 leukemia) was > 100 µM and the TGI (KM12 colon) was > 100 µM. For the same molecule, the TGI (LOX IMVI melanoma) was > 100 µM, the TGI (M14 melanoma) was > 100 µM and the TGI (MALME-3M melanoma) was > 100 µM. For the same molecule, the TGI (MCF7 breast) was > 100 µM, the TGI (MDA-MB-231 breast) was > 100 µM and the TGI (MDA-MB-435) was > 100 µM. For the same molecule, the TGI (MDA-N) was > 100 µM, the TGI (MOLT-4 leukemia) was > 100 µM and the TGI (NCI-H226 lung) was > 100 µM. For the same molecule, the TGI (NCI-H23 lung) was > 100 µM, the TGI (NCI-H460 lung) was > 100 µM and the TGI (NCI-H522 lung) was > 100 µM. For the same molecule, the TGI (NCI/ADR-RES ovarian) was > 100 µM, the TGI (OVCAR-3 ovarian) was > 100 µM and the TGI (OVCAR-4 ovarian) was > 100 µM. The TGI (OVCAR-5 ovarian) was > 100 µM, the TGI (OVCAR-8 ovarian) was > 100 µM and the TGI (PC-3 prostate) was > 100 µM. For the same molecule, the TGI (RPMI-8226 leukemia) was > 100 µM, the TGI (RXF 393 renal) was > 100 µM and the TGI (SF-268 CNS) was > 100 µM. For the same molecule, the TGI (SF-295 CNS) was > 100 µM, the TGI (SF-539 CNS) was > 100 µM and the TGI (SK-MEL-2 melanoma) was > 100 µM. For the same molecule, the TGI (SK-MEL-28 melanoma) was > 100 µM, the TGI (SK-MEL-5 melanoma) was > 100 µM and the TGI (SK-OV-3 ovarian) was > 100 µM. The TGI (SN12C renal) was > 100 µM, the TGI (SNB-19 CNS) was > 100 µM and the TGI (SNB-75 CNS) was > 100 µM. For the same molecule, the TGI (SR leukemia) was > 100 µM, the TGI (SW-620 colon) was > 100 µM and the TGI (T-47D breast) was > 100 µM. For the same molecule, the TGI (TK-10 renal) was > 100 µM, the TGI (U251 CNS) was > 100 µM and the TGI (UACC-62 melanoma) was > 100 µM. The TGI (UO-31 renal) was > 100 µM.
